# Measured values as given in patent US20150031045A1, “MARKERS FOR DIAGNOSING AMYOTROPHIC LATERAL SCLEROSIS” (University Of Maryland, priority 2012, published 2015).
# “Also recorded” adds a separate entry of the source.
# Key:
# [1] = Body weight of G93A*SOD1 ALS mice treated with 6-gingerol; type: in vivo
# Experimental: (§1) The study used 12 mice. At 35 d, mice were assigned to treatment groups. The 3 groups in the study were: i) wild-type control mice treated with vehicle (CON-Veh; n=4; 3 female (F) and 1 male (M)); ii) G93A*SOD1 ALS mice treated with vehicle (ALS-Veh; n=4; 3 F and 1 M; and iii) G93A*SOD1 mice treated with 6-Gingerol (ALS-Gin; n=4; 3 F and 1 M). There were no 6-gingerol treated control mice due to cost of the drug.
# (§2) 6-gingerol was purchased from Carbosynth Limited, UK. Mice were dosed daily with intraperitoneal (ip) injection of vehicle (0.4% ethanol in PBS) or 6-gingerol at a dose of 10 mg/kg. Treatment began when mice were 35 d old and terminated at 115 d. The volume dosed was adjusted weekly according to changes in body weight.
# In this study, mice were evaluated at an average age of 115±5 d (for CON-Veh, ALS-Veh and ALS-Gin), just prior to severe symptom onset. […] There was also a significant reduction in muscle mass in ALS vs. CON mice and a 21% improvement in muscle mass with 6-gingerol (CON-Veh: 0.111±0.015 g; ALS-Veh: 0.075±0.010 g; ALS-Gin 0.090±0.007 g) (FIG. 22, left panel, and Table 4).
# G93A*SOD1 ALS mice [2] = test: Gastrocnemius muscle mass and muscle mass index; type: in vivo
# Experimental: as §1, §2
# Specifically, muscle function was assessed using a grip test and a walking or stride test at the termination of the study. After conclusion of the grip function and stride function tests, the mice were then sacrificed and skeletal muscle tissues weighed to determine muscle mass.
# G93A*SOD1 ALS mice [3] = test: Grip function test; type: in vivo; settings: 10 mg/kg ip daily
# Experimental: as §1, §2
# Briefly, mice are placed on a metal grid (20 cm wide, 40 cm long; grid placed 40 cm above table) and allowed to grip with fore- and hind-limb paws prior to inverting the grid. Timing begins once the grid is inverted and stops once the mouse can no longer hold the lid.
# G93A*SOD1 ALS mice [4] = test: Stride length test; type: in vivo; settings: 10 mg/kg ip daily; p=0.13
# Experimental: as §1, §2
# Briefly, fore- and hind-limb paws are dipped in non-toxic paint and mice walk across a 120 cm table covered in white paper. A dark box with food is placed at the far end to encourage walking across the table. The distance between the fore- and hind-limb ink marks are then measured. Four strides per mouse are quantified and the average stride length determined
# [5] = test system: single muscle fibres from the flexor digitorum brevis (FDB) muscle; test: Intracellular Ca2+ handling (Fura-2) in single muscle fibres from treated mice; type: in vivo
# Experimental: For e-c coupling measurements, fibres were loaded with 1 μM Fura-2 AM in MEM/FBS media for 15 min at room temperature. Fura-2 AM media was then removed by quick centrifugation and fibres were resuspended in fresh MEM/FBS media. Fibres loaded with Fura-2 were placed in a culture/stimulation chamber (Cell MicroControls) containing parallel electrodes on top of a Nikon TiU microscope. Once in the chamber, fibres were continuously perfused with stimulating tyrode (121 mM NaCl, 5 mM KCl, 1.8 mM CaCl2, 0.5 mM MgCl2, 0.4 mM NaH2PO4, 24 mM NaHCO3, and 5.5 mM glucose) pH 7.3 when continuously bubbled with 95% O2/5% CO2 using a Gilson Minipuls 3 peristaltic pump and vacuum pump. Intracellular Ca^2+ levels were assessed by Fura-2 fluorescence ratio (ratio of excitation at 340 and 380 nm; emission at 510 nm) using the IonOptix Hyperswitch system, with the Hyperswitch enabling collection of ratiometric data at a frequency of 250 Hz. Ratios were converted to intracellular free Ca^2+ concentration ([Ca^2+]i). The Fura-2 ratio was calibrated in vivo using the Ca^2+ ionophore A23187 and 10 mM EGTA or 1 mM CaCl2, with Rmin and Rmax determined to be 0.33 and 3.50, respectively. The Kd for Ca^2+ for Fura-2 was 224 nM.
# Fura-2 loaded single fibres were stimulated using 350 ms tetani, 0.5 ms pulse duration at 10, 30, 50, 70 and 100, 120 and 150 Hz stimulation frequencies (S48 Square Pulse Stimulator, GRASS Technologies) with one minute rest between frequencies. All single fibre data was collected at room temperature (23 degrees Celsius). […]
# After conclusion of the grip function and stride function tests, mice were then sacrificed and single muscle fibres were obtained immediately from the flexor digitorum brevis (FDB) muscle and intracellular Ca^2+ handling assessed using Fura-2 as discussed above in Example 1. Changes in Fura-2 ratio, representing changes in [Ca^2+]i, were measured under resting conditions and in response to electrical stimulation at a range of physiological frequencies (10-150 Hz). […]
# SERCA1 = SERCA1 protein level in gastrocnemius muscle by western blot; type: in vivo, mice; settings: 10 mg/kg ip daily; levels nearing those in CON muscle; p<0.05 vs. ALS-Veh
# From the text: (§3) The superficial (SP) and deep (DP) portions of the gastrocnemius muscle (SP GAS and DP GAS, respectively) were used for analysis of Ca^2+ regulatory protein levels by western blot. Anatomically, the gastrocnemius muscle is composed of a lateral and medial head, with a similar mixture of fibres types in the two heads: lateral gastrocnemius is 69% fast glycolytic (FG), 30% fast oxidative and glycolytic (FOG) and 1% slow oxidative (SO) fibres and medial gastrocnemius is 55% FG, 32% FOG and 8% SO. The muscle was divided by superficial vs. deep portions due to their glycolytic (white) vs. oxidative (red) differences, respectively. […] Protein levels were determined using a BCA protein kit (Thermo Scientific). […] For assessment of changes in sarcoplasmic reticulum (SR)/endoplasmic reticulum (ER) Ca^2+ (SERCA) pump, SERCA1 and SERCA2 protein levels were measured. Specifically, 15 μg protein was loaded on 8% gels and analyzed by polyacrylamide gel electrophoresis (PAGE). Levels of parvalbumin (PV) were assessed by loading 2.5 μg protein on 15% gels. […] Level of each respective protein was quantified by chemiluminescence using SuperSignal West Dura Chemiluminescent Substrate (Thermo Scientific) and imaged using a chemiluminescence imaging system (GeneGnome, Syngene). Protein expression levels are expressed as Arbitrary Units (AU). […]
# SERCA2 = SERCA2 protein level in skeletal muscle by western blot; type: in vivo, mice; settings: 10 mg/kg ip daily
# From the text: as §3
# CHOP = CHOP protein level in gastrocnemius muscle by western blot; type: in vivo, mice; settings: 10 mg/kg ip daily; p<0.05 vs. ALS-Veh
# Experimental: Total protein was determined using a BCA protein assay kit (Thermo Scientific). Samples were then solubilized in loading buffer and denatured (5 min at 100° C.). For assessment of changes in protein expression levels, 15-30 μg total protein were loaded on bis-acrylamide gels and analyzed by polyacrylamide gel electrophoresis (PAGE). The amount of protein loaded for each endpoint was determined by separate analysis of the linear range for each antibody. Samples were then transferred to PVDF membrane (Millipore) and blocked with 5% (w/v) non-fat dry milk powder in Tris-buffered saline (pH 8.0) for 1 hr. […] Secondary antibodies were detected using HRP-linked chemiluminescence with SuperSignal West Dura Chemiluminescence Substrate (Thermo Scientific) and imaged using a chemiluminescence imaging system (GeneGnome, Syngene). The signal for the target protein of each sample was quantified and expressed in arbitrary unit (AU) and then values for each ALS and CON mouse expressed as a ratio relative to the first CON mouse (CON1) at each age. […]
# The response of skeletal muscle to the ER stress markers was also assessed in response to gingerol treatment, namely by examining the levels of the apoptotic factor CHOP.
# PERK = PERK protein level in gastrocnemius muscle by western blot; type: in vivo, mice; settings: n=5
# Experimental: (§4) As described above in Examples 15-18, ALS mice administered 6-gingerol had improved muscle function, improved intracellular calcium clearance, increased SERCA1 protein levels, and decreased CHOP protein levels. To further examine the response of skeletal muscle to 6-gingerol treatment, the levels of ER stress proteins PERK, GRP78/BiP, PDI, and IRE1α were measured in the gastrocnemius muscle of control (CON) and G93A*SOD1 (ALS) mice treated with vehicle (Veh) or 6-gingerol (Gin). Specifically, the protein levels were measured by western blotting. Each group had five mice, i.e., CON (n=5), ALS-Veh (n=5), and ALS-Gin (n=5).
# GRP78/BiP = GRP78/BiP protein level in gastrocnemius muscle by western blot; type: in vivo, mice; settings: n=5
# Experimental: as §4
# PDI = PDI protein level in gastrocnemius muscle by western blot; type: in vivo, mice; settings: n=5
# Experimental: as §4
# IRE1α = IRE1α protein level in gastrocnemius muscle by western blot; type: in vivo, mice; settings: n=5
# Experimental: as §4
# SR Ca^2+ ATPase (SERCA) = test: Maximum Ca2+ ATPase activity in skeletal muscle homogenates; type: in vivo, mice; settings: 10 mg/kg 6-gingerol for 10 weeks, p<0.05 vs. ALS-Veh
# Experimental: To further examine the effects of 6-gingerol treatment, maximum Ca^2+ ATPase activity was measured in control (CON) and G93A*SOD1 (ALS) mice treated with vehicle (Veh) or 6-gingerol (Gingerol). Specifically, ALS mice received 10 mg/kg 6-gingerol for 10 weeks. The vehicle was administered in parallel to the CON-Veh and ALS-Veh groups of mice.
# SR Ca^2+ ATPase (SERCA) activity in skeletal muscle homogenates obtained from the mice was then measured and the average data for all groups is shown in FIG. 31, in which CON (n=5), ALS-Veh (n=5), and ALS-Gin (n=5). In FIG. 31, *=p<0.05 vs. CON-Veh and #=p<0.05 vs. ALS-Veh.
structure (smiles),measurement,setting,value
CCCCC[C@H](O)CC(=O)CCc1ccc(O)c(OC)c1 [6-gingerol],Effect of 6-gingerol on body weight,"[1]; ALS-Gin vs. ALS-Veh, 10 mg/kg ip daily, 10 mg/kg",no significant improvement
same,Body weight,"[1]; ALS-Gin: G93A*SOD1 mice, 10 mg/kg ip daily from 35 d, evaluated at 115±5 d, CON-Veh 21.0±2.7, ALS-Veh 17.8±1.4",18.2 ± 0.7 g
same,"Muscle mass index (mg muscle per g body weight), reduction in ALS",G93A*SOD1 ALS mice [2]; ALS-Gin vs. ALS-Veh,attenuated
same,Improvement in muscle mass with 6-gingerol,"G93A*SOD1 ALS mice [2]; ALS-Gin vs. ALS-Veh, 10 mg/kg ip daily",21%
same,Gastrocnemius muscle mass,"G93A*SOD1 ALS mice [2]; ALS-Gin, 10 mg/kg ip daily 35-115 d, CON-Veh 0.111±0.015, ALS-Veh 0.075±0.010",0.090 ± 0.007 g
same,"Grip test time, difference ALS-Gin vs. ALS-Veh",G93A*SOD1 ALS mice [3]; p<0.10,did not reach significance
same,"Grip function, % of CON-Veh level","G93A*SOD1 ALS mice [3]; ALS-Gin, ALS-Veh 17% of CON-Veh, p=0.08",42%
same,"Stride length, difference ALS-Gin vs. ALS-Veh",G93A*SOD1 ALS mice [4],tendency to improve; also recorded: did not reach statistical significance
same,Effect of 6-gingerol on peak Fura-2 ratio (10 Hz),[5]; ALS-Gin vs. ALS-Veh,no attenuation; also recorded: no improvement
same,"Ca^2+ decay time, ALS-Gin vs. ALS-Veh","[5]; single FDB fibres, after 50 and 100 Hz tetani, p<0.11",tendency for improvement; also recorded: trend for single fibres from ALS-Gin to have a faster decay time
same,"Resting Fura-2 ratio, ALS-Gin vs. ALS-Veh","[5]; single FDB fibres, p=0.13",lower but did not reach statistical significance; also recorded: tendency for Fura-2 ratio to be lower
same,"SERCA1 protein level in gastrocnemius muscle, ALS-Gin compared to ALS-Veh",SERCA1,dramatic increase
same,"SERCA2 protein level, rescue of the decrease with 6-gingerol treatment",SERCA2,minimal rescue
same,"CHOP protein level in skeletal muscle, ALS-Gin vs. ALS-Veh",CHOP,significantly attenuated
same,"PERK protein level, ALS-Gin compared to ALS-Veh",PERK,decreased
same,"GRP78/BiP protein level, ALS-Gin compared to ALS-Veh",GRP78/BiP,decreased
same,"PDI protein level, ALS-Gin compared to ALS-Veh",PDI,decreased
same,"IRE1α protein level, ALS-Gin compared to ALS-Veh",IRE1α,decreased
same,"Ca^2+ ATPase maximum activity (SERCA activity), ALS-Gin relative to ALS-Veh",SR Ca^2+ ATPase (SERCA),increased; also recorded: restored Ca^2+ ATPase maximum activity
